Legend:
[1] = target: Fibroblast growth factor receptor 1 (Homo sapiens, UniProt P11362); assay: Inhibition of FGFR1 (unknown origin) using KKKSPGEYVNIEFG peptide substrate assessed as incorporation of [32P] into peptide by scintillation counting analysis
[2] = Antiproliferative activity against human KG1 cells after 72 hrs by MTT assay; type: functional, cell-based; settings: KG-1, 72 h

Sequence of Fibroblast growth factor receptor 1 (P11362 whole entry): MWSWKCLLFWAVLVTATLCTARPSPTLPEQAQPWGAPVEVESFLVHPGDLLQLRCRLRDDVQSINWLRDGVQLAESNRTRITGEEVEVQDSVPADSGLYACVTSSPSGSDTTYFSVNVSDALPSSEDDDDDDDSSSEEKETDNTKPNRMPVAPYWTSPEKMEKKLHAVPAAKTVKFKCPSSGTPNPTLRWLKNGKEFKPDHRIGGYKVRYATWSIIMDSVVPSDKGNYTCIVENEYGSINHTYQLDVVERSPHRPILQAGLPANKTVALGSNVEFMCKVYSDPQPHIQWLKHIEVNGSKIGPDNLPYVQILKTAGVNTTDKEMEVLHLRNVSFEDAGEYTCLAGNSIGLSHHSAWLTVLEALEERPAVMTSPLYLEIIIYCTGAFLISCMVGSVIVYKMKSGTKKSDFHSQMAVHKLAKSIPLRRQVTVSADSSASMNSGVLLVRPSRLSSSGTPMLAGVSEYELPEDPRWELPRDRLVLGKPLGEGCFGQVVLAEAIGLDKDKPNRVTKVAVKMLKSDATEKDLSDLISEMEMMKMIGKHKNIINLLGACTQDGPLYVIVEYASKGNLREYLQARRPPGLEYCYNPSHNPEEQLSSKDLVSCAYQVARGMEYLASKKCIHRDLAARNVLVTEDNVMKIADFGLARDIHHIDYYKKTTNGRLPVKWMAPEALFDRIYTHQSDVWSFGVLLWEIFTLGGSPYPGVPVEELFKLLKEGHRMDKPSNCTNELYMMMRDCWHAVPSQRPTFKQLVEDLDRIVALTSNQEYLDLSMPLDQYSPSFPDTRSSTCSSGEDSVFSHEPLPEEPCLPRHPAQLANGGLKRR

IC50 [1]	SMILES	IC50 [2]
> 30 µM	Fc1ccc(Nc2ncnc3scc(-c4ccc(Cl)cc4)c23)cc1	
0.7 µM	Cc1ccc(-c2csc3ncnc(Nc4cccc(O)c4)c23)cc1	33.9 µM
0.5 µM	CCOC(=O)c1sc2ncnc(Nc3cccc(O)c3)c2c1C	
2.5 µM	COc1cccc(Nc2ncnc3scc(-c4ccccc4)c23)c1	
5 µM	COc1ccc(Nc2ncnc3scc(-c4ccc(C)cc4)c23)cc1	
1.2 µM	Oc1ccc(Nc2ncnc3sc(-c4ccccc4)cc23)cc1	
> 30 µM	CCOC(=O)c1sc2ncnc(Nc3cccc(OC)c3)c2c1C	
18.2 µM	Fc1ccccc1Nc1ncnc2sc(-c3ccccc3)cc12	
1.66 µM	Oc1ccc(Nc2ncnc3scc(-c4ccccc4)c23)cc1	
6.3 µM	Fc1ccc(Nc2ncnc3scc(-c4ccccc4)c23)cc1	
5.6 µM	Cc1cc2c(Nc3ccc(O)cc3)ncnc2s1	

The next lines start with the compound.

SMILES	IC50 [1]	IC50 [2]
Cc1ccc(-c2csc3ncnc(Nc4cccc(C(=O)O)c4)c23)cc1	11 µM	
Cc1ccc(-c2csc3ncnc(Nc4ccc(C(=O)O)cc4)c23)cc1	> 30 µM	
Fc1ccc(Nc2ncnc3sc4c(c23)CCCC4)cc1	3.2 µM	
Fc1ccccc1Nc1ncnc2sc3c(c12)CCCCC3	4.3 µM	
Oc1cccc(Nc2ncnc3sc(-c4ccccc4)cc23)c1	0.16 µM	16.2 µM
COc1ccc(Nc2ncnc3scc(-c4ccccc4)c23)cc1	3 µM	
Cc1ccc(-c2csc3ncnc(Nc4ccc(F)cc4)c23)cc1	> 30 µM	
Oc1cccc(Nc2ncnc3scc(-c4ccccc4)c23)c1	0.18 µM	26.2 µM
Oc1ccc(Nc2ncnc3scc(-c4ccc(Cl)cc4)c23)cc1	3 µM	
CCOC(=O)c1sc2ncnc(Nc3cccc(C(=O)O)c3)c2c1C	> 30 µM	
Cc1nc(Nc2ccc(O)cc2)c2cc(-c3ccccc3)sc2n1	5 µM	
CCOc1ccc(-c2csc3ncnc(Nc4cccc(O)c4)c23)cc1	12.5 µM	
CCOC(=O)c1sc2ncnc(Nc3ccc(F)cc3)c2c1C	> 30 µM	
Cc1sc2ncnc(Nc3ccc(O)cc3)c2c1-c1ccccc1	1.25 µM	
CCOC(=O)c1sc2ncnc(Nc3ccc(OC)cc3)c2c1C	> 30 µM	
CCOc1ccc(-c2csc3ncnc(Nc4ccc(O)cc4)c23)cc1	> 30 µM	
Oc1cccc(Nc2ncnc3scc(-c4ccc(Cl)cc4)c23)c1	0.5 µM	50 µM
COc1cccc(Nc2ncnc3scc(-c4ccc(Cl)cc4)c23)c1	> 30 µM	
Fc1ccc(Nc2ncnc3sc4c(c23)CCCCC4)cc1Cl	1.6 µM	
Fc1ccc(Nc2ncnc3sc(-c4ccccc4)cc23)cc1	4.3 µM	
Fc1ccccc1Nc1ncnc2scc(-c3ccccc3)c12	> 30 µM	

From ChEMBL document CHEMBL3400102, “Design, synthesis and biological evaluation of N-phenylthieno[2,3-d]pyrimidin-4-amines as inhibitors of FGFR1” (Bioorg Med Chem, 2015)
